Tests used:
[1] = tested on: NKCC1; experiment: Calcium kinetic assay in primary cultures of immature hippocampal neurons; format: cell-based; details: 10 μM, immature neurons 3 DIV
Experimental: FIG. 2: In vitro testing of the NKCC1 inhibitors in a calcium kinetic assay. a) Example traces of fluorescence levels upon application of GABA (100 μM) and KCl (90 mM) used to trigger calcium influx in primary neuronal cultures treated after 3 days in culture (3 DIV) with vehicle, bumetanide, furosemide and compounds 3.8, 3.13 and 3.17 in the calcium kinetic assay. b) Quantification of the average fluorescence increase upon GABA application normalized to the increase upon KCl application in neurons treated with bumetanide, furosemide and 3 exemplary compounds (3.8, 3.13, 3.17) (10 μM, 100 μM). Data represents mean±sem from 5 independent experiments, and they are presented as % of the control. *P<0.05, **P<0.01, ***P<0.001 Kruskal-Wallis Anova (Dunn's Post hoc Test).
Next, the compounds of the invention were tested for their ability to revert the depolarizing GABAergic signaling in immature neurons. This effect was indirectly measured as calcium influx into the cells with an in vitro calcium kinetic assay in primary cultures of hippocampal neurons. The calcium kinetic assay exploits the physiological, endogenous, high expression of NKCC1 in immature neurons, which causes depolarizing actions of GABA and can activate voltage-gated Ca^2+ channels. Thus, in immature neurons, a compound that blocks NKCC1 is predicted to inhibit Ca^2+ responses upon GABA application. Immature neurons were cultured for 3 days in vitro (3 DIV) and loaded for 15 min with a calcium-sensitive dye (Fluo4). Then, the neurons were treated with bumetanide and furosemide (as positive controls) or with each of the selected compounds for 15 min. As a functional readout, the fluorescence level was monitored in these cultures before and after application of GABA (100 μM, for 20 sec). To test for neuronal viability at the end of the experiment, KCl was applied (90 mM, for 40 sec), which strongly depolarizes neurons, causing high activation of voltage-gated Ca^2+ channels in live cells. To quantify how bumetanide, furosemide, and selected compounds influenced NKCC1 inhibition, the fluorescence values were normalized upon GABA application to the fluorescence levels upon KCl application in treated neurons.

[2] = biological target: T1, NKCC1 (Homo sapiens, UniProt P55011); experiment: Chloride kinetic assay (Cl-sensitive YFP) in NKCC1-transfected HEK293 cells; format: cell-based; details: 10 μM, NKCC1-transfected HEK293; for inhibition at 10 µM: read-out: NKCC1 Inhibition % 10 μM HEK Chloride YFP assay
T1 construct: expressed in transfected cells; host or cells: HEK293
T1 sequence (P55011 1-1212): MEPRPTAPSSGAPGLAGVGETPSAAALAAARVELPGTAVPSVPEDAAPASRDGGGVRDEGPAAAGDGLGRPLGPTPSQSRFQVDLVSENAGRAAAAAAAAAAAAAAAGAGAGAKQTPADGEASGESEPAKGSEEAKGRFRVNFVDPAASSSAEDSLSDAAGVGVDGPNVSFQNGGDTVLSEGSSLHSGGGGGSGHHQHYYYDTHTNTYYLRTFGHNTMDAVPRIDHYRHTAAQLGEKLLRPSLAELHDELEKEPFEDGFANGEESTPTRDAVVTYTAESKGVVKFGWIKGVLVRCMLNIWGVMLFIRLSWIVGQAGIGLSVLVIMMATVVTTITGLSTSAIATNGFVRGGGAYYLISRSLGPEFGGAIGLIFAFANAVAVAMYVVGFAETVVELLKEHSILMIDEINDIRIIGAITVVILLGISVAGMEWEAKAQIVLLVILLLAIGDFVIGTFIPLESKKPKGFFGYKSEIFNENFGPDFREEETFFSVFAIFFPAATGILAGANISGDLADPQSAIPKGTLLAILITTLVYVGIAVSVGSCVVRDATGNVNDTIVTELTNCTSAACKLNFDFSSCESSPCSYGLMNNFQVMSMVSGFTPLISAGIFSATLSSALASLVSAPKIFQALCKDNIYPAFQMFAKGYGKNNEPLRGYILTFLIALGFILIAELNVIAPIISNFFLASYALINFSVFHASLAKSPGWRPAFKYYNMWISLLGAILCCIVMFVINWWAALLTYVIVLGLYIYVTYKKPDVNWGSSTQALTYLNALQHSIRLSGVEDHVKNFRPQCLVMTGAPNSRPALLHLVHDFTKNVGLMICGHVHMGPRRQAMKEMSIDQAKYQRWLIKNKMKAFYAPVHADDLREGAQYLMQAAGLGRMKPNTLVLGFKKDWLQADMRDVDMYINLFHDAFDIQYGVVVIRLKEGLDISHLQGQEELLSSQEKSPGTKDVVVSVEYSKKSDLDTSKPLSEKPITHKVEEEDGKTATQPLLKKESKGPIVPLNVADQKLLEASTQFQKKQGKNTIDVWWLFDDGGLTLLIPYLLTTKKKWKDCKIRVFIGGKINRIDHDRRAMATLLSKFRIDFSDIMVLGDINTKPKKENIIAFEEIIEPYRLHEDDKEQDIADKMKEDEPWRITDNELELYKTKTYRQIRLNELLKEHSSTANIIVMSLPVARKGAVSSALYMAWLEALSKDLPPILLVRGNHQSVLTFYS
Experimental: FIG. 1: In vitro testing of the NKCC1 inhibitors in the chloride kinetic assay a) Example traces obtained in the chloride kinetic assay on HEK cells transfected with the YFP (mock) or with YFP and NKCC1. The arrow indicates the addition of NaCl (final concentration 74 mM) used to initiate the flux assay. b) Quantification of the effect of bumetanide (10 μM and 100 μM) or furosemide (10 μM and 100 μM) in the chloride kinetic assay on mock or NKCC1-transfected HEK293 cells. Data represents mean±sem from 5 independent experiments. c) Quantification of the effect of bumetanide and furosemide and 2 selected compounds (3.8, 3.17) in the chloride kinetic assay on NKCC1-transfected HEK293 cells. Data represents mean±sem from 5 independent experiments, and they are represented as % of the controls. *P<0.05, **P<0.01, ***P<0.001 Kruskal-Wallis Anova (Dunn's Post hoc Test); ###P<0.001 two-tailed unpaired Student t-test.
To screen in vitro the compounds efficiency in blocking NKCC1, a functional NKCC1 transporter assay was performed by measuring variation of Cl^− ion concentration in the cell through a Cl^− sensitive membrane-tagged yellow fluorescent protein (mbYFPQS, Addgene). mbYFPQS fluorescence is inversely dependent on the concentration of Cl^− inside the cell thus allowing an indirect estimation of the Cl^− transporter activity. In particular, HEK293 cells were transfected with NKCC1 or mock construct (control) together with the Cl^− sensitive YFP. After 2 DIV, the cells were treated with bumetanide and furosemide (as positive controls) or with each of the tested compounds of the invention in a Cl^− free medium. After 30 min, the inhibitory activity of the compounds was tested by monitoring fluorescence upon application of NaCl (FIG. 1a). Transported by NKCC1, Cl binds the YFP, leading to a fluorescence decrease. […] With the Cl kinetic assay, the NKCC1 inhibitory activity of the selected compounds was tested (FIG. 1c).

SMILES | NKCC1 Inhibition % 10 μM Neurons Calcium kinetic assay ([1]; Table 1) | NKCC1 Inhibition % 10 μM Neurons Calcium kinetic assay ([1]; Table 2) | inhibition at 10 µM ([2]; Table 1) [%] | NKCC1 Inhibition % 10 μM HEK Chloride YFP assay ([2]; Table 1) | NKCC1 Inhibition % 10 μM HEK Chloride YFP assay ([2]; Table 2)
O=C(O)c1ccc(NCCCCCCCC(F)(F)F)c(S(=O)(=O)N2CCCC2)c1 [Compound 5.5, 3-pyrrolidin-1-ylsulfonyl-4-(8,8,8-trifluorooctylamino) benzoic acid] | 39% | 39% | 2 | – | –
CN(C)S(=O)(=O)c1cc(C(=O)O)ccc1NCCCCCC(F)(F)F [Compound 3.16, 3-(dimethylsulfamoyl)-4-(6,6,6-trifluorohexylamino) benzoic acid] | Inactive | Inactive | 17 | – | –
O=C(O)c1ccc(NCCCCCCCC(F)(F)F)c(S(=O)(=O)NC2CCCC2)c1 [Compound 3.21, 3-(cyclopentylsulfamoyl)-4-(8,8,8-trifluorooctylamino) benzoic acid] | 51% | 51% | 18 | – | –
CN(C)S(=O)(=O)c1cc(C(=O)O)c(OC2CCCC2)cc1NCCCCCCCC(F)(F)F [Compound 12.10] | 26.6% | – | – | – | –
COc1cc(NCCCCCCCC(F)(F)F)c(S(=O)(=O)N(C)C)cc1C(=O)O [Compound 13.1, 5-(N,N-dimethylsulfamoyl)-2-methoxy-4-((8,8,8-trifluorooctyl)amino)benzoic acid] | 14.2% | – | – | – | –
COCCNc1ccc(C(=O)O)cc1S(=O)(=O)N(C)C [Compound 3.18, 3-(dimethylsulfamoyl)-4-(2-methoxyethylamino)benzoic acid] | Inactive | Inactive | 13 | – | –
O=C(O)c1ccc(NCCCCCCCC(F)(F)F)c(S(=O)(=O)N2CCC(F)(F)CC2)c1 [Compound 14.4, 3-((4,4-difluoropiperidin-1-yl)sulfonyl)-4-((8,8,8-trifluorooctyl)amino)benzoic acid] | 48.0% | – | – | – | –
COCCCCNc1ccc(C(=O)O)cc1S(=O)(=O)N(C)C [Compound 3.19, 3-(dimethylsulfamoyl)-4-(4-methoxybutylamino)benzoic acid] | Inactive | Inactive | 6 | – | –
O=C(O)c1ccc(NCCCCCCCC(F)(F)F)c(S(=O)(=O)N2CCCCC2)c1 [Compound 5.6, 3-(1-piperidylsulfonyl)-4-(8,8,8-trifluorooctylamino) benzoic acid] | 55% | 55% | – | Inactive | Inactive
NS(=O)(=O)c1cc(C(=O)O)c(O)cc1NCCCCCCCC(F)(F)F [Compound 7.4, 2-hydroxy-5-sulfamoyl-4-(8,8,8-trifluorooctylamino) benzoic acid] | 24% | – | 30 | – | –
O=C(O)c1ccc(NCCCCCCCC(F)(F)F)c(S(=O)(=O)N2CCOCC2)c1 [Compound 14.3, 3-morpholinosulfonyl-4-((8,8,8-trifluorooctyl)amino)benzoic acid] | 7.1% | – | – | – | –
O=C(O)c1ccc(NCCCCCCCC(F)(F)F)c(S(=O)(=O)N2CCOCC2)c1 [Compound 5.7, 3-morpholinosulfonyl-4-(8,8,8-trifluorooctylamino) benzoic acid] | 24% | 24% | 13 | – | –
CCOc1cc(NCCCCCCCC(F)(F)F)c(S(=O)(=O)N(C)C)cc1C(=O)O [Compound 12.9] | 12.2% | – | – | – | –
COCCCCCCNc1ccc(C(=O)O)cc1S(=O)(=O)N(C)C [Compound 3.20, 3-(dimethylsulfamoyl)-4-(6-methoxyhexylamino)benzoic acid] | 20% | 20% | – | Inactive | Inactive
CN(C)S(=O)(=O)c1cc(C#N)ccc1NCCCCCCCC(F)(F)F [Compound 6.3, 5-cyano-N,N-dimethyl-2-(8,8,8-trifluorooctylamino) benzenesulfonamide] | – | – | 20 | – | –
CN(C)S(=O)(=O)c1cc(C(=O)O)ccc1N1CCN(CCCCC(F)(F)F)CC1 [Compound 9.1, 3-(dimethylsulfamoyl)-4-[4-(5,5,5 trifluoropentyl)piperazin-1-yl] benzoic acid] | – | – | 3 | – | –
CN(C)S(=O)(=O)c1cc(C(=O)O)ccc1NCCCC(F)(F)F [Compound 3.15, 3-(dimethylsulfamoyl)-4-(4,4,4 trifluorobutylamino) benzoic acid] | Inactive | Inactive | 11 | – | –
CNS(=O)(=O)c1cc(C(=O)O)ccc1NCCCCCCCC(F)(F)F [Compound 3.10, 3-(methylsulfamoyl)-4-(8,8,8-trifluorooctylamino)benzoic acid] | 14% | 14% | – | Inactive | Inactive
